Assay results reported in patent publication US20240207203A1, “NOVEL USE” (DSM IP Assets B.V., priority 2021, published 2024).

Assays:
[1] = test system: methane production in rumen liquor; experiment: In vitro test for methane production (modified Hohenheim Forage value Test, HFT); format: cell-based; conditions: TMR feed, 8 h at 39° C., average of four to eight experiments
Experimental: In vitro test for methane production: A modified version of the “Hohenheim Forage value Test (HFT)” was used for testing the effect of specific compounds on the rumen functions mimicked by this in-vitro system.
Principle: Feed is gadded into a syringe with a composition of rumen liquor and an appropriate mixture of buffers. The solution is incubated at 39° C. After 8 hours the quantity (and composition) of gas phase produced is measured and put into a formula for conversion.
Sample weighing: The feed stuff (i.e. TMR (44% concentrate, 6% hay, 37% maize silage and 13% grass silage) is sieved to 1 mm and weighed exactly into 64 syringes. 4 of these syringes are the substrate controls, which display the gas production without the effect of the tested compounds. 4 other syringes are positive control (3-NOP, 10 µM). When needed, 4 syringes contain a carrier control (if the test compounds need a carrier). The remaining syringes contain the test substances, by groups of 4 syringes, in the amounts as indicated in table 1.
Extraction of the rumen liquor: 750 ml of rumen liquor are added to approximately 1,400 ml of medium solution under continued agitation and CO2-gassing.
Filling the syringes, incubation and determining gas volumes and VFA values: The diluted rumen fluid (24 ml) is added to the glass syringe. The syringes are then incubated for 8 hours at 39° C. under gentle agitation. After 8 hours, the volume of gas produced is measured, and the percentage of methane in the gas phase is determined by gas chromatography.
The food fermented was artificial TMR (44% concentrate, 6% hay, 37% maize silage and 13% grass silage). Gossypol was obtained from Sigma-Aldrich (G8761), and used at a concentration as outlined in table 1.3-Nitrooxy-propanol (3-NOP) was used at the concentration as outlined in table 1. The respective in vitro data was linked to dosage regimes correlating to the same methane reduction in vivo.

[2] = test system: methane production in ruminants; conditions: reported in WO2012/084629; cited from earlier work

Row | Structure (SMILES) | Total methane change, found ([1]; single substance at 2.5 μM) [% vs. control] | Total methane change, found ([1]; single substance at 5 μM) [% vs. control] | Total methane change, found ([1]; single substance at 10 μM) [% vs. control] | Reduction of methane production in ruminants (in words) [2] | Total methane change, found ([1]; single substance at 20 μM) [% vs. control] | Total methane change, found ([1]; single substance at 100 μM) [% vs. control]
1 | O=[N+]([O-])OCCCO [3-NOP, 3-Nitrooxypropanol] | −12 | −54 | −98 | significantly reduce the methane production | – | –
2 | Cc1cc2c(C(C)C)c(O)c(O)c(C=O)c2c(O)c1-c1c(C)cc2c(C(C)C)c(O)c(O)c(C=O)c2c1O [G, Gossypol] | – | −1 | −11 | – | −15 | −69
